{"source": "patent US20250386825A1", "about": "“Formulation for Applying to Vegetation” (Okipa Ltd, priority 2022, published 2025)", "tested_on": "potato leaves", "settings": "for damage on Aug. 8, 2022 (rating score) / damage on Aug. 16, 2022 (rating score) / damage on Aug. 22, 2022 (rating score): treatment on Aug. 5, 2022, Braunschweig, score 0-10, * p < 0.05 vs untreated", "description": "In addition to the direct control of weeds in arable farming and on non-crop land, the use of sodium saccharin for desiccation of potatoes was examined. Thus, the following variants were tested in a field test (soil type: sandy loam): (a) untreated, (b) 160 g/l and (c) 320 g/l sodium saccharin. In this example, the addition of an additive was deliberately avoided in order to assess the specific effect of sodium saccharin. The experimental design was a fully randomized block design with 3 replicates and a plot size of 2.25 m^2.\nIn each case, a row of potatoes 3 m in length was applied using a 5 l hand-held sprayer (®Gloria) with a conventional annular nozzle at a pressure of 3-4 bar. As a result, the degree of damage was recorded in the form of the following rating score.\nScore (damage) of the potato leaves after treatment with Sodium saccharin (treatment on Aug. 5, 2022, Braunschweig, conventional cultivation)", "note": "Where two headings read alike, the source gives them in different places."}
{"smiles": "O=C1NS(=O)(=O)c2ccccc21.[Na]", "note": "[Sodium saccharin, sodium saccharin]", "values": [{"measurement": "damage on Aug. 8, 2022 (rating score)", "setting": "160 g/l, no additive", "value": "1.3*"}, {"measurement": "damage on Aug. 16, 2022 (rating score)", "setting": "160 g/l, no additive", "value": "5.3*"}, {"measurement": "damage on Aug. 22, 2022 (rating score)", "setting": "160 g/l, no additive", "value": "8.3*"}, {"measurement": "damage on Aug. 8, 2022 (rating score)", "setting": "320 g/l, no additive", "value": "3.3*"}, {"measurement": "damage on Aug. 16, 2022 (rating score)", "setting": "320 g/l, no additive", "value": "7.7*"}, {"measurement": "damage on Aug. 22, 2022 (rating score)", "setting": "320 g/l, no additive", "value": "9.3*"}, {"measurement": "desiccation of potato leaves (trend in words)", "setting": "field test, 160 g/l and 320 g/l, no additive", "value": "sufficiently desiccated"}, {"measurement": "desiccation of potato leaves (in words)", "setting": "low concentration (160 g/l), after 17 days", "value": "sufficient desiccation"}]}
